In US6410558B1, “Fungicides for the control of take-all disease of plants” (Monsanto Technology LLC, priority 1991, dated 2002):

System: Gaeumannomyces graminis var. tritici (Ggt)
Assay: In vitro Assay: mycelial growth of Ggt on minimal media agar plates containing test compound
Type: cell-based
Details: dark, 19-20° C., 4 to 5 days, diameter of mycelial growth; for inhibition at 0.1 ppm / inhibition at 1 ppm / inhibition at 10 ppm: Gaeumannomyces graminis; for inhibition at 0.1 ppm / In vitro (ppm) 0.1, Percent Inhibition: 0.1 ppm in minimal media agar; for inhibition at 0.1 ppm: read-out: In vitro (ppm) 0.1, Percent Inhibition; for inhibition at 1 ppm / In vitro (ppm) 1, Percent Inhibition: 1 ppm in minimal media agar; for inhibition at 1 ppm: read-out: In vitro (ppm) 1, Percent Inhibition; for inhibition at 10 ppm / In vitro (ppm) 10, Percent Inhibition: 10 ppm in minimal media agar; for inhibition at 10 ppm: read-out: In vitro (ppm) 10, Percent Inhibition
Procedure, shortened: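 Compounds added from acetone stock into minimal (Czapek Dox) agar; plates inoculated with three 4-mm Ggt plugs, incubated in dark at 19-20° C for 4 to 5 days. Colony diameter measured; Percent Inhibition = [1-((treated mm −4)/(control mm −4))]×100.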

Compound | inhibition at 0.1 ppm | inhibition at 1 ppm | inhibition at 10 ppm | In vitro (ppm) 0.1, Percent Inhibition | In vitro (ppm) 1, Percent Inhibition | In vitro (ppm) 10, Percent Inhibition
C[Si](C)(C)c1cc(Cl)sc1C(=O)NCCCl [Example 264, 5-Chloro-N-(2-chloroethyl)-3-(trimethylsilyl)-2-thiophenecarboxamide] | 2% | 88% | 100% | – | – | –
Cc1ccccc1NC(=O)c1c(Br)cccc1[Si](C)(C)C [Example 120, 2-Bromo-N-(2-methylphenyl)-6-(trimethylsilyl)benzamide] | < 0% | 26% | 100% | – | – | –
CCNC(=O)c1c(Br)cccc1[Si](C)(C)C [Example 176, 2-Bromo-N-ethyl-6-(trimethylsilyl)benzamide] | 83% | 97% | 97% | – | – | –
CC(C)c1ccccc1NC(=O)c1c(Cl)cccc1[Si](C)(C)C [Example 156, 2-Chloro-N-[2-(1-methylethyl)phenyl]-6-(trimethylsilyl)benzamide] | 9% | 33% | 72% | – | – | –
CCNC(=O)c1sc(C)cc1[Si](C)(C)C [Example 256, N-Ethyl-5-methyl-3-(trimethylsilyl)-2-thiophenecarboxamide] | < 0% | < 0% | 100% | – | – | –
COCCNC(=O)c1c(Cl)cccc1[Si](C)(C)C [Example 146, 2-Chloro-N-(2-methoxyethyl)-6-(trimethylsilyl)benzamide] | 14% | 65% | 84% | – | – | –
CCNC(=O)c1cccc([N+](=O)[O-])c1[Si](C)(C)C [Example 246, N-Ethyl-3-nitro-2-(trimethylsilyl)benzamide] | < 0% | 2% | 61% | – | – | –
CC(C)SC(=O)c1c(Cl)cccc1[Si](C)(C)C [Example 78, 2-Chloro-6-(trimethylsilyl)-benzenecarbothioic acid, S-(1-methylethyl) ester] | 12% | 12% | 62% | – | – | –
COc1cccc(CNC(=O)c2c(Cl)cccc2[Si](C)(C)C)c1 [Example 139, 2-Chloro-N-[(3-methoxyphenyl)methyl]-6-(trimethylsilyl)benzamide] | 11% | 53% | 100% | – | – | –
CCOP(=O)(OCC)N(CC)C(=O)c1c(Cl)cccc1[Si](C)(C)C [Example 278, [2-Chloro-6-(trimethylsilyl)benzoyl]ethylphosphoramidic acid, diethyl ester] | < 0% | 50% | 75% | – | – | –
CCNC(=O)c1c(Cl)ccc(N(C)C)c1[Si](C)(C)C [Example 237, 6-Chloro-3-(dimethylamino)-N-ethyl-2-(trimethylsilyl)benzamide] | 44% | 93% | 96% | – | – | –
COc1ccc(CNC(=O)c2c(Cl)cccc2[Si](C)(C)C)cc1 [Example 136, 2-Chloro-N-[(4-methoxyphenyl)methyl]-6-(trimethylsilyl)benzamide] | 3% | 26% | 100% | – | – | –
CCNC(=O)c1c(Cl)cccc1[Si](C)(C)C1CCCCC1 [Example 181, 2-Chloro-6-(cyclohexyldimethylsilyl)-N-ethylbenzamide] | 12% | 33% | 58% | – | – | –
CCN(CC)C(=O)c1c([Si](C)(C)C)ccc(F)c1Cl [Example 88, N,N-Diethyl-2-chloro-3-fluoro-6-(trimethylsilyl)benzamide] | < 0% | < 0% | 73% | – | – | –
C/C=C\NC(=O)c1c(Cl)cccc1[Si](C)(C)C [Example 112, (Z)-2-Chloro-N-1-propenyl-6-(trimethylsilyl)benzamide] | 81% | 96% | 100% | – | – | –
CCNC(=O)c1c([Si](C)(C)C)ccc(S(C)(=O)=O)c1Cl [Example 238, 2-Chloro-N-ethyl-3-(methylsulfonyl)-6-(trimethylsilyl)benzamide] | < 0% | < 0% | 72% | – | – | –
CN(C)NC(=O)c1c([Si](C)(C)C)ccc(Cl)c1Cl [Example 205, 2,3-Dichloro-6-(trimethylsilyl)benzoic acid, 2,2-dimethylhydrazide] | 5% | 47% | 81% | – | – | –
CCNC(=O)c1sc(C=O)cc1[Si](C)(C)C [Example 258, N-Ethyl-5-formyl-3-(trimethylsilyl)-2-thiophenecarboxamide] | 19% | 19% | 42% | – | – | –
C[Si](C)(C)c1cccc(Cl)c1C(=O)NCc1ccc([N+](=O)[O-])cc1 [Example 137, 2-Chloro-N-[(4-nitrophenyl)-methyl]-6-(trimethylsilyl)-benzamide] | 17% | 61% | 100% | – | – | –
CCc1ccc([Si](C)(C)C)c(C(=O)N(CC)CC)c1Cl [Example 85, N,N-Diethyl-2-chloro-3-ethyl-6-(trimethylsilyl)benzamide] | 7% | 7% | 59% | – | – | –
CCN(CC=CC#CC(C)(C)C)C(=O)c1c(Cl)cccc1[Si](C)(C)C [Example 104, 2-Chloro-N-(6,6-dimethyl-2-hepten-4-ynyl)-N-ethyl-6-(trimethylsilyl)benzamide] | < 0% | 26% | 71% | – | – | –
2-Chloro-N-ethyl-6-(9-phenylethenyl)benzamide [Example 116] | – | – | – | N (If the calculation resulted in “0” or less, as compared to the untreated control, a “N” is shown to indicate no control.) | N (If the calculation resulted in “0” or less, as compared to the untreated control, a “N” is shown to indicate no control.) | 33%
CCNC(=O)c1c(F)cccc1-c1ccccc1C [Example 94, N-Ethyl-2-fluoro-6-(2-methylphenyl)benzamide] | 9% | 63% | 86% | – | – | –
CCNC(=O)c1c(F)cccc1[S+]([O-])C(C)(C)C (stereo not drawn) [Example 194, 2-[(1,1-Dimethylethyl)sulfinyl]-N-ethyl-6-fluorobenzamide] | 82% | 100% | 100% | – | – | –
CCN(CC)C(=O)c1c(C=O)ccc(F)c1[Si](C)(C)C [Example 41, N,N-Diethyl-3-fluoro-6-formyl-2-(trimethylsilyl)benzamide] | 24% | 21% | 52% | – | – | –
CCNC(=O)c1c(Cl)ccc[c]1[Sn]([CH3])([CH3])[CH3] [Example 115, 2-Chloro-N-ethyl-6-(trimethylstannyl)benzamide] | – | – | – | 97% | 97% | 97%
CCNC(=O)c1c(Br)csc1[Si](C)(C)C [Example 267, 4-Bromo-N-ethyl-2-(trimethylsilyl)-3-thiophenecarboxamide] | 18% | 64% | 61% | – | – | –
